We go through one compound from patent US20030118525A1, “Treatment of uv induced immunosuppression” (priority 2000, published 2003).

In test [1] the test system is mice irradiated with simulated solar UV radiation (SSUV). The experiment in a line: Erythema/oedema as mid-dorsal skinfold thickness after simulated solar UV radiation. It is filed as in vivo. On the procedure: (§1) 1.1 Solar simulated radiation (SSUV) was produced from a filtered fluorescent tube source, and was administered at the rate of 1 MED daily for 3Days.
1.2 Erythema was measured as a mid-dorsal skinfold thickness, which comprises mostly the oedema component of erythema.
(§2) Carnosine incorporated into cosmetic creams at 0.1% and 1.00%, was compared with a cream containing 0.1% acetylcarnosine and a control cream containing neither carnosine nor acylcarnosine. The creams were applied daily (100 μl per mouse) immediately following irradiation with 1 MED of simulated solar UV radiation on 3 consecutive days only.
The sunburn (erythema) response was measured in mice by the oedema component at the peak of the erythema (48 h after the first UV exposure).

The test system is the same in test [2]. Kind of test: Contact hypersensitivity to oxazolone after SSUV irradiation (ear swelling). It is filed as in vivo. Particulars: 0.1% cream; in words. On the procedure: as §1
1.3 Contact hypersensitivity was induced by application of 100 μl 0.2% w/v oxazolone in ethanol, to the abdominal skin of groups of 6 mice. The mice were challenged by application of 5 μl of fresh oxazolone/ethanol to each surface of both pinnae one week later, and the ear swelling response was measured 24 h later.
as §2

The subject of test [3] is collagen in human fibroblasts. The experiment in a line: Collagen cross-linking by UV (solar) irradiation in human fibroblasts in vitro. The format is cell-based. Conditions: 1-2 μM. An excerpt:
(§3) 1.4 Collagen cross-linking by UV (solar) irradiation was achieved as described in WO 90/06102.

Test [4] concerns collagen in mouse fibroblasts. The experiment in a line: Collagen cross-linking by UV (solar) irradiation in mouse fibroblasts in vitro. The format is cell-based. Conditions: 1-2 μM.
Text: as §3

The subject of the next test is collagen in mouse skin. The experiment in a line: Collagen cross-linking by UV (solar) irradiation in mouse skin. Particulars: 1-2 μM.
Text: as §3

For the compound `CC(=O)NCCC(=O)N[C@@H](Cc1cnc[nH]1)C(=O)O` [acetylcarnosine, N-acetylcarnosine], in test [1] (0.1% cream, 100 μl per mouse daily immediately after 1 MED SSUV on 3 days, measured at 48 h, base + SSUV 30.2), the “% increase in skinfold thickness” value is listed as 11.3%. In addition, the “sunburn (erythema) response, oedema component at peak of erythema” value in test [1] (creams applied after SSUV, 48 h after the first UV exposure, in words) is recorded as “significant reduction”. In addition, the “protection against suppression of contact hypersensitivity resulting from UV irradiation” value in test [2] was “totally prevented”. For the same compound, the “inhibition of cross linking of collagen by UV (solar) irradiation” value (in test [3]; in test [4]; with collagen in mouse skin) was “completely inhibited” throughout.
